Columns and labels:
bovine SVF cells = assay: retinoic acid induced inhibition of the differentiation of bovine SVF cells to adipocytes, Oil Red O staining; format: cell-based; conditions: for Oil Red O absorbance (OD minus blank), well1 / Oil Red O absorbance (OD minus blank), well2 / Oil Red O absorbance (OD minus blank), average / lipid accumulation compared with control cells: bovine SVF cells; for Oil Red O absorbance (OD minus blank), well1 / Oil Red O absorbance (OD minus blank), well2 / Oil Red O absorbance (OD minus blank), average: OD 530 nm, day 13; for Oil Red O absorbance (OD minus blank), average: control average 0.4465
Protocol: The efficiency of the RAR antagonists compounds No. 1, 3, 4 and 5 in blocking the antiadipogenic effect of ATRA on bovine cells was investigated. The cells used in this experiment were from a primary culture of the stromal-vascular fraction isolated from intramuscular fat of an Angus steer.
To assess the adipocyte differentiation state, the cells of a 12-well plate were stained with “Oil Red O” and after conveniently extraction of the dye from the lipid droplets the absorbance was measured with a microplate reader.
Cells of a bovine stromal-vascular fraction from intramuscular fat (passage 4) of one flask (75 cm^2) were trypsinized by treating the adherent cells with 2 ml 0.25% Trypsin-EDTA. The reaction was stopped with growth medium (DMEM, 1% (v/v) of antibiotic solution, 50 μg/ml gentamicin sulfate, 33 μM biotin, 17 μM D-pantothenate, 100 μM (+)-sodium L-ascorbate and 10% FCS heat inactivated) and 1.5 ml of this cell suspension were added to each well of a 12-well-plate. Cells were incubated at 37° C./5% CO2 in an incubator.
One day after cells reach confluency the growth medium was removed and adipogenesis initiation medium (growth medium/0.25 μM Dexamethasone/10 μg/ml Insulin/1 μM rosiglitazone) was added into 2 wells (i.e., in duplicate) without further compounds. Adipogenesis initiation medium additionally containing 0.1 μM ATRA was added into 2 wells without further compounds and alternative with 1 μM of compound No. 1, compound No. 3, compound No. 4 and compound No. 5 into 2 wells each of the 12-well plate.
After incubation for three days, the adipogenesis initiation medium was removed and 1.5 ml adipogenesis medium (growth medium/10 μg/ml Insulin/1 μM rosiglitazone) containing the substances as indicated above was added per well. The culture medium was replaced twice a week.
Thirteen days after addition of adipogenesis initiation medium the medium was removed and cells of the 12-well plate were fixed and stained with Oil Red O as previously described.
The absorbance is reported in Table 3 and FIG. 2 as the difference of the observed OD of extracted dye at 530 nm and a blank well OD value.

3T3-L1 preadipocyte = assay: retinoic acid induced inhibition of 3T3-L1-preadipocyte differentiation, Oil Red O staining of lipid droplets; format: cell-based, mouse; conditions: for Oil Red O absorbance (OD minus blank), well1 / Oil Red O absorbance (OD minus blank), well2 / Oil Red O absorbance (OD minus blank), average: OD 492 nm; for Oil Red O absorbance (OD minus blank), well1 / Oil Red O absorbance (OD minus blank), well2: day 9; for Oil Red O absorbance (OD minus blank), average: day 9, control average 0.5263
Protocol: The effectiveness of the RAR alpha antagonists Compounds No. 2, 3 and 4 and the RAR pan antagonist Compound No. 1 in blocking the inhibitory effect of all-trans retinoic acid (ATRA) on 3T3-L1 preadipocyte differentiation was investigated.
In this experiment the “Oil Red O”-staining of lipid droplets is used as indicator of the degree of adipogenesis. After conveniently extraction of the dye from the lipid droplets the absorbance was measured with a microplate reader.
3T3-L1-cells (passage 7) of one flask (75 cm^2) were trypsinized by treating the adherent cells with 2 ml 0.25% Trypsin-EDTA. The reaction was stopped with fibroblast growth medium (DMEM/10% Newborn Calf Serum/1% Penicillin/Streptomycin) and 1 ml of this cellsuspension were added to each well of a 12-well-plate. Cells were incubated at 37° C./5% CO2 in an incubator.
One day after cells reach confluency the fibroblast growth medium was removed and adipogenesis initiation medium (DMEM/10% FBS/1 μM Dexamethasone/0.5 mM IBMX/1 μg/ml Insulin) was added into 2 wells (i.e., in duplicate) without further substances (control), into 2 wells with 0.1 μM ATRA+ alternative 1 μM of compound No. 4, Compound No. 2, Compound No. 3 and 1 into 2 wells with 0.1 μM ATRA.
After incubation for two days, the adipogenesis initiation medium was removed and 1.5 ml adipogenesis medium (DMEM/10% FBS/1 μg/ml Insulin) containing the substances as indicated above was added per well. After another three days of incubation, the medium was replaced by adipogenesis medium without any additional substances. The culture medium was replaced every 2 or 3 days.
Nine days after addition of adipogenesis initiation medium, the medium was removed from all wells. Cells were fixed and stained with Oil Red O as follows:
Fix the cells in 10% formalin in PBS, remove formalin, dry completely, wash with PBS, dry at room temperature; Prepare Oil red O working solution by diluting 3 parts Oil Red O stock solution with 2 parts dH2O; Add Oil red O working solution for 1 hour; Remove all Oil Red O and immediately add dH2O, wash with dH2O until water is colourless; Wash with 60% isopropanol, dry completely at room temperature; elute Oil red O by adding 60% isopropaniol/4% Triton X-100 solution for 1.5 hours; transfer to 96 well plate; measure absorption (optical density—OD) at 492 nm (Tecan Spectraflour plus)
The absorbance is reported in Table 2 and FIG. 1 as the difference of the observed OD of extracted dye at 492 nm and a blank well OD value.

RARα = target: T1, RARα (Homo sapiens, UniProt P10276); assay: luciferase based RA responsive reporter assay, RARα; format: cell-based; conditions: antagonist
T1 sequence (P10276 1-462): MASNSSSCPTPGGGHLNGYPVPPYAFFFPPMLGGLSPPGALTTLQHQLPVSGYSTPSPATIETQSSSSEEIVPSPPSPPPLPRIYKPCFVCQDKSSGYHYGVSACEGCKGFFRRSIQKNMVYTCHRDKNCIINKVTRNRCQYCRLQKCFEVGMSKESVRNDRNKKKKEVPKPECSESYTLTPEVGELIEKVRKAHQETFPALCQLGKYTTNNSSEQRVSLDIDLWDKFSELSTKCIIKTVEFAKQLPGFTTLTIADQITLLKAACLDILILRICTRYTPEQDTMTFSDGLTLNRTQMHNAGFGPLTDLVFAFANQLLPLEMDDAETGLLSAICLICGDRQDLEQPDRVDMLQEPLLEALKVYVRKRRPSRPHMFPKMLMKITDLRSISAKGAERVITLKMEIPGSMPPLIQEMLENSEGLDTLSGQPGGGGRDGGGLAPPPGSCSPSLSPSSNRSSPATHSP

RARβ = target: T2, RARβ (Homo sapiens, UniProt P10826); assay: luciferase based RA responsive reporter assay, RARβ; format: cell-based; conditions: antagonist
T2 sequence (P10826 1-455): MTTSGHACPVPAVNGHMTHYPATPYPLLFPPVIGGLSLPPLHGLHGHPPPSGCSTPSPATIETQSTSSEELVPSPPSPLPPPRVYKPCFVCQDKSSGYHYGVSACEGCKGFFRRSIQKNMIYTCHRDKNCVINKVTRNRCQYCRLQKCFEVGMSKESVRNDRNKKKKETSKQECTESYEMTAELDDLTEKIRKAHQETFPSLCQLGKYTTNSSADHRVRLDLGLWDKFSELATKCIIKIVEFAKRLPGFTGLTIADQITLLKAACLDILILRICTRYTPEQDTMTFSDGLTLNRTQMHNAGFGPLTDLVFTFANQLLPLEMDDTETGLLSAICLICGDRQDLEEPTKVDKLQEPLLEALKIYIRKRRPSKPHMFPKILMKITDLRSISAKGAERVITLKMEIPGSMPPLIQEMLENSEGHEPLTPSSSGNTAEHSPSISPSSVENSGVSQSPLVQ

RARs = assay: agonistic activity on RARs; format: cell-based
RARγ = target: T3, RARγ (Homo sapiens, UniProt P13631); assay: luciferase based RA responsive reporter assay, RARγ; format: cell-based; conditions: antagonist
T3 sequence (P13631 1-454): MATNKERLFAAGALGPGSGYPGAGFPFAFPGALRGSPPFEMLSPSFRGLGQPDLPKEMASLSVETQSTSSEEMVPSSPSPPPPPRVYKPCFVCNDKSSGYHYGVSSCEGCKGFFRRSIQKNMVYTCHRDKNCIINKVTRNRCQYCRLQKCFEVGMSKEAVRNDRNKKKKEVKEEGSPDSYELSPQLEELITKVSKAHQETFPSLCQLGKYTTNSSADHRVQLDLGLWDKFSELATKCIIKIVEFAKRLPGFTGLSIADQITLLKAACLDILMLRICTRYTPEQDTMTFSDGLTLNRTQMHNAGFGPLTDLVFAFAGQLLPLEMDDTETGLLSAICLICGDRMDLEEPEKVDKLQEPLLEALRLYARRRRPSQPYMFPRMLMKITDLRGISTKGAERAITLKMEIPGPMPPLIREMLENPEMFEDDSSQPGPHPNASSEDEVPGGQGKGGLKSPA

| Structure (SMILES) | lipid accumulation compared with control cells (bovine SVF cells; 1 μM compound + 0.1 μM ATRA) | Oil Red O absorbance (OD minus blank), well1 (bovine SVF cells; 1 μM compound + 0.1 μM ATRA) | Oil Red O absorbance (OD minus blank), well2 (bovine SVF cells; 1 μM compound + 0.1 μM ATRA) | Oil Red O absorbance (OD minus blank), average (bovine SVF cells; 1 μM compound + 0.1 μM ATRA) | Oil Red O absorbance (OD minus blank), well1 (3T3-L1 preadipocyte; 1 μM compound + 0.1 μM ATRA) | Oil Red O absorbance (OD minus blank), well2 (3T3-L1 preadipocyte; 1 μM compound + 0.1 μM ATRA) | Oil Red O absorbance (OD minus blank), average (3T3-L1 preadipocyte; 1 μM compound + 0.1 μM ATRA) | other results |
| --- | --- | --- | --- | --- | --- | --- | --- | --- |
| CC1=C(/C=C/C(C)=C/C=C/C(C)=C/C(=O)O)C(C)(C)CCC1 [ATRA, all-trans retinoic acid] |  |  |  |  |  |  |  | Oil Red O absorbance (OD minus blank), well1 (bovine SVF cells; ATRA 0.1 μM alone): 0.1409; Oil Red O absorbance (OD minus blank), well2 (bovine SVF cells; ATRA 0.1 μM alone): 0.1924; Oil Red O absorbance (OD minus blank), average (bovine SVF cells; ATRA 0.1 μM alone): 0.1667; amount of Oil Red O stainable lipid droplets (bovine SVF cells; ATRA 0.1 μM alone, bovine cells): clearly decreased; amount of differentiated lipid-containing adipocytes (3T3-L1 preadipocyte; ATRA 0.1 μM alone): significantly reduced; Oil Red O absorbance (OD minus blank), well1 (3T3-L1 preadipocyte; ATRA 0.1 μM alone): 0.0925; Oil Red O absorbance (OD minus blank), well2 (3T3-L1 preadipocyte; ATRA 0.1 μM alone): 0.0727; Oil Red O absorbance (OD minus blank), average (3T3-L1 preadipocyte; ATRA 0.1 μM alone): 0.0826 |
| Cc1ccc(C2=CCC(C)(C)c3ccc(C#Cc4ccc(C(=O)O)cc4)cc32)cc1 [Compound No. 1] | lipid accumulation of control cells is not reached | 0.2849 | 0.3493 | 0.3171 | 0.1736 | 0.1792 | 0.1764 |  |
| Cc1ccc(C2=CC(C)(C)Oc3c(Br)cc(C(=O)Nc4cc(F)c(C(=O)O)c(F)c4)cc32)cc1 [Compound No. 2] |  |  |  |  | 0.2264 | 0.2267 | 0.2266 |  |
| CC1(C)CC=C(c2cnc3ccccc3c2)c2cc(C(=O)Nc3ccc(C(=O)O)cc3)ccc21 [Compound No. 3] | lipid accumulation of control cells is not reached | 0.3504 | 0.4044 | 0.3774 | 0.3589 | 0.2996 | 0.3293 |  |
| Cc1ccc(C2=CC(C)(C)Oc3c(Br)cc(C(=O)Nc4ccc(C(=O)O)cc4)cc32)cc1 [Compound No. 4, 4-[[8-bromo-2,2-dimethyl-4-(p-tolyl)chromene-6-carbonyl]amino]benzoic acid] |  | 0.5411 | 0.6229 | 0.5820 | 0.3361 | 0.3571 | 0.3466 | IC50 (RARα): 0.004 µM; IC50 (RARβ): 2.98 µM; agonistic activity on RARs (RARs): lacks any significant agonistic activity; IC50 (RARγ): 2.35 µM |
| CN1c2cc3c(cc2N=C(c2ccc(C(=O)O)cc2)c2ccc4ccccc4c21)C(C)(C)CCC3(C)C [Compound No. 5] | lipid accumulation of control cells is not reached | 0.2915 | 0.3318 | 0.3117 |  |  |  |  |

— patent US20140094512A1, “METHOD OF MODULATING THE DEGREE OF ADIPOSE TISSUE DEPOSITED INTRAMUSCULARLY” (priority 2012, published 2014)
